In US6906108B2, “Extracts of vetiver oil as repellent and toxicant to ants, ticks, and cockroaches” (Board of Supervisors of Louisiana State University and …, priority 2001, dated 2005):

How the values were obtained:
[1] = test system: ticks (Ixodes scapularis); test: Tick Petri dish bioassay with treated sand (repellency and toxicity); type: in vivo
Method: To test the effectiveness of nootkatone against ticks, ticks (Ixodes scapularis) were collected from Idlewild, La. Nootkatone efficiacy was tested relative to a known repellent, N,N-diethyl-m-toluamide (“Deet”). REPEL®, which contains 27.55% Deet, was purchased locally from a retail garden store.
The bioassay was conducted using Petri dishes (5 cm diameter and 1 cm height). To ensure adequate moisture for the ticks, 1 ml of a hot agar solution (1.5% in H2O) was spread evenly on the inside surfaces of the Petri dish, including the top, bottom, and edges. After the agar cooled, sand that was treated as described below was spread evenly on the inside surfaces of the Petri dish. The sand was held in place by the agar.
For the treated sand, either 2 mg nootkatone or 100 mg REPEL® was initially dissolved in 2 ml ethanol, and then 200 μl of the solution was mixed with 2 g sand that had been autoclaved and cooled. The control was autoclaved sand with 200 μl ethanol only added. One half of the surfaces in the Petri dishes were covered with 2 g treated sand, and the other half with 2 g untreated sand. In the nootkatone-treated Petri dishes, the final concentration was 200 μg/dish; while in the Deet treated Petri dishes, the final concentration was 2.75 mg/dish. Control Petri dishes were prepared by covering all sides with untreated sand. One tick was added to each Petri dish, and the top replaced. The number of replicates were as follows: control, 6; nootkatone, 9; and Deet, 8. […] Repellent activity was noted if the tick was found on the untreated side of the Petri dish. The ticks in the control Petri dishes were randomly distributed on the left and right sides.
The above experiment was repeated with ticks (Ix. scapularis) collected from Hammond, La. The number of replicates in this experiment were as follows: controls, 8; nootkatone, 10; and Deet, 8.

[2] = test system: German cockroaches (Blattella germanica); test: German cockroach Petri dish filter paper bioassay (repellency and toxicity); type: in vivo
Method: To test the efficacy of nootkatone against cockroaches, German cockroaches (Blattella germanica) were collected at Baton Rouge, La., the same day as the bioassay was begun.
For the bioassay, Petri dishes (10 cm diameter×1 cm) were used. The Petri dishes were prepared by lining one half of the top and one half of the bottom with a half circle of filter paper (125 mm), and lining the other half with a second half circle of filter paper. For the treated Petri dishes, 50 mg nootkatone and 300 mg REPEL® were dissolved in 2.0 ml ethanol. To each Petri dish was added either ethanol only, 30 mg Deet, 1 mg nootkatone, or 10 mg nootkatone. Ten replicate Petri dishes were used for each of the treatments. The ethanol solution was added to the filter paper on the top and bottom and dried for 10 min. One cockroach was added to each Petri dish. The length of the cockroaches varied from 1 to 1.5 cm. The dishes were then observed at 15 min, 30 min, 1 hr, 2 hr, 3 hr, 4 hr, 5 hr, 24 hr, 48 hr, and 120 hr.

[3] = 200 μg/dish vs 2.75 mg/dish Deet
[4] = 200 μg/dish, 10 replicates, ticks from Hammond
[5] = 200 μg/dish, ticks from Hammond

## C=C(C)C1CCC2=CC(=O)CC(C)C2(C)C1 (stereo not drawn) [nootkatone, 4,4a,5,6,7,8-hexahydro-6-isopropenyl-4,4a-dimethyl-2(3H)-naphthalone]
[1]; 200 μg/dish
  Overall activity against ticks: effective repellent and toxicant
[1]; [3]
  Duration of repellent activity compared with Deet: longer than Deet
  Toxicant strength compared with Deet: stronger toxicant than Deet
[1]; 200 μg/dish, 9 replicates, one tick per dish, ticks from Idlewild
  Ticks dead after 90 hr (number): four
[1]; [4]
  Ticks dead at 24 hr (number): one
  Ticks dead at 72 hr (number): four
  Ticks dead at 96 hr (number): nine
[1]; [5]
  Ticks dead at 72 hr (percent): 40%
  Ticks dead at 96 hr (percent): 90%
[1]; 200 μg/dish, ticks from Idlewild
  Ticks dead after 90 hr (percent): 50%
[2]; 1 mg per dish
  Repellent activity against the cockroaches: weak repellent
[2]; 1 mg per dish, 30 min
  Percent Repellency: 70%
[2]; 1 mg per dish, 1 hr
  Percent Repellency: 60%
[2]; 1 mg per dish, 2 hr
  Percent Repellency: 50%
[2]; 1 mg per dish, 3 hr
  Percent Repellency: 78%
[2]; 1 mg per dish, 4 hr
  Percent Repellency: 78%
[2]; 1 mg per dish, 5 hr
  Percent Repellency: 78%
[2]; 1 mg per dish, 24 hr
  Percent Repellency: 56%
[2]; 1 mg per dish, 48 hr
  Percent Repellency: 78%
[2]; 1 mg per dish, 120 hr
  Percent Repellency: 100%
[2]; 10 mg per dish, 30 min
  Percent Repellency: 90%
[2]; 10 mg per dish, 1 hr
  Percent Repellency: 100%
[2]; 10 mg per dish, 2 hr
  Percent Repellency: 100%
[2]; 10 mg per dish, 3 hr
  Percent Repellency: 100%
[2]; 10 mg per dish, 4 hr
  Percent Repellency: 100%
[2]; 10 mg per dish, 5 hr
  Percent Repellency: 100%
[2]; 10 mg per dish, 24 hr
  Percent Repellency: 100%
[2]; 10 mg per dish, 48 hr
  Percent Repellency: 100%
[2]; 10 mg per dish, 120 hr
  Percent Repellency: 100%
[2]; any of the treatments (30 mg Deet; 1 mg or 10 mg nootkatone), up to 120 hr
  Number of cockroach deaths compared with the control: not significantly different from the control
